Columns and labels:
human THP-1 macrophages [1] = assay: Internalization of labelled nanoparticles in human THP-1 macrophages (confocal overlay); format: cell-based
Description: For cell culture experiments, human THP-1 macrophages (American Type Culture Collection, Manassas, USA) were maintained in Roswell Park Memorial Institute (RPMI) 1640 media supplemented with 2 mM Glutamine (GIBCO, New York, NY, USA) and 100/fetal bovine serum (FBS, Sigma-Aldrich). The human THP-1 macrophages were sub-cultured once a week and incubated at 37° C. in a humidified atmosphere containing 5% CO2. The human THP-1 macrophages were passaged by centrifugation when reaching a confluency of 10^6 cells/mL. In the following experiments, cell seeding is performed with media enriched with 50 ng/ml phorbol 12-myristate 13-acetate (PMA; Sigma-Aldrich) to allow for adherence of cells over 48 h.
Human THP-1 macrophages were cultured as described above and seeded with a density of 200.000 cells/cm^2 in an 8-well μ-slide (ibidi, Gräfelfing, Germany) for 48 h. Labeled NPs were diluted in RPMI cell culture medium to reach a final concentration of 50 μg/mL. Afterwards 200 μL particle suspension was added to the human THP-1 macrophages. […] The image analysis software Fiji was used for the reconstruction of images, and the plugin “co-localization finder” was used to visualize the overlaying signal in white and quantify the fluorescence overlay of different channels.

[2] = test system: intracellular S. aureus-mCherry; format: cell-based, S. aureus strain RN4220; details: 24 h; for survival of intracellular S. aureus: systemically delivered: dissolved zinc (300 μM), dissolved vancomycin (5.5 μM), versus 'no treatment'
Description: S. aureus strain RN4220 expressing mCherry fluorescent protein (S. aureus-mCherry) was used for in vitro studies. Bacterial inoculums were prepared by culturing S. aureus-mCherry in tryptic soy broth (TSB; BD Difco, Leeuwarden, the Netherlands) supplemented with 10 μg/mL chloramphenicol (Merck) shaking at 120 rpm and 37° C. to the mid logarithmic growth phase. S. aureus-mCherry bacteria were pelleted by centrifugation (3000 g, 10 min), re-suspended in 1 mL of NaCl and 0.25 mL human serum (H1 serum, Bio Whittaker, MD, USA) and incubated for 20 min. The inoculum was adjusted to 10^8 CFU/mL with RPMI based on the optical density value at wavelength 620 (OD620). The human THP-1 macrophages were seeded as described above in 96-well plates at a concentration of 100.000 cells/cm^2. After 48 h, the media was replaced by 1 μL of the bacterial inoculum (bacteria to cell ratio of 1:1) and incubated for 45 min at 37° C. and 5% CO2. Afterwards, the human THP-1 macrophages were washed three times with 50 μL PBS and one time with 200 μL PBS to prevent carry-over of planktonic S. aureus-mCherry. RPMI media supplemented with 5 μg/mL gentamycin (Sigma-Aldrich) was added to control the extracellular growth of S. aureus-mCherry.
The human THP-1 macrophages were allowed to phagocytose S. aureus-mCherry as described above. To investigate the intracellular killing efficiency of the synthesized NPs, RPMI media with 5 μg/ml gentamycin was enriched with 50 μg/ml of synthesized NPs for 24 h. Moreover, to assess the synergistic effect of zinc and vancomycin, a combination of 20 mol % ZnHA and VGelA NPs was added to the co-culture in different concentrations. After 24 h, the human THP-1 macrophages were lysed with 100 μl of 0.025% TritonX-100 to determine the amount of intracellular S. aureus-mCherry number. After lysis, the solution was serial diluted in PBS and spot-plated on agar plates. […] Additionally, the viability of the THP-1 macrophages is assessed using a LIVE/DEAD cell viability assay (Invitrogen, Waltham, MA, USA) as mentioned above. […]

human THP-1 macrophages [3] = assay: LIVE/DEAD cell viability assay of THP-1 macrophages with phagocytosed S. aureus; format: cell-based; details: systemic zinc 75 μM, 24 h
Description: Additionally, a LIVE/DEAD cell viability assay (Invitrogen, Waltham, MA, USA) was used according to the manufacturer's instructions to visualize the cells after 24 h of phagocytosis. In brief, 100 μL of 4 μM Ethidium homodimer 1 and 2 μM calcein AM solution in PBS was added to the human THP-1 macrophages and incubated for 30 min before visualization using a Leica SP8-X DLS Lightsheet microscope (Leica Microsystems, Wetzlar, Germany). Human THP-1 macrophages without phagocytosed S. aureus-mCherry served as negative control. The amount of living cells were quantified by counting using three LIVE/DEAD images and compared between macrophages with and without phagocytosed S. aureus.
The human THP-1 macrophages were allowed to phagocytose S. aureus-mCherry as described above. To investigate the intracellular killing efficiency of the synthesized NPs, RPMI media with 5 μg/ml gentamycin was enriched with 50 μg/ml of synthesized NPs for 24 h. Moreover, to assess the synergistic effect of zinc and vancomycin, a combination of 20 mol % ZnHA and VGelA NPs was added to the co-culture in different concentrations. […] Additionally, the viability of the THP-1 macrophages is assessed using a LIVE/DEAD cell viability assay (Invitrogen, Waltham, MA, USA) as mentioned above. […]

Row | Compound | internalization by human THP-1 macrophages (human THP-1 macrophages [1]; dissolved, no NPs) | Overlay (%) (human THP-1 macrophages [1]; fluorescently labelled NPs 50 μg/mL in THP-1 macrophages, confocal co-localization) | survival of intracellular S. aureus [2] | amount of alive cells (LIVE/DEAD images) (human THP-1 macrophages [3]) | effect on intracellular S. aureus survival ([2]; systemic zinc 75 μM)
1 | FITC-vancomycin | inability | 0 | – | – | –
2 | CN[C@H](CC(C)C)C(=O)N[C@H]1C(=O)N[C@@H](CC(N)=O)C(=O)N[C@H]2C(=O)N[C@H]3C(=O)N[C@H](C(=O)N[C@H](C(=O)O)c4cc(O)cc(O)c4-c4cc3ccc4O)[C@H](O)c3ccc(c(Cl)c3)Oc3cc2cc(c3O[C@@H]2O[C@H](CO)[C@@H](O)[C@H](O)[C@H]2O[C@H]2C[C@](C)(N)[C@H](O)[C@H](C)O2)Oc2ccc(cc2Cl)[C@H]1O [vancomycin] | – | – | did not cause a significant reduction | – | –
3 | [Zn] [zinc] | – | – | did not cause a significant reduction | visually decreased the amount of alive cells | reduction of intracellular S. aureus survival
